Read-outs that look alike come from different tables or passages of the source.
Molecular target: α-glucosidase (E.C.3.2.1.20)
Experiment: α-Glucosidase enzyme inhibition assay (PNP-G substrate, spectrophotometric)
Type: biochemical
Experimental: α-Glucosidase (E.C.3.2.1.20) enzyme inhibition assay was performed according to the slightly modified method of Matsui et al. α-glucosidase (E.C.3.2.1.20) from Saccharomyces species, purchased from Wako Pure Chemical Industries Ltd. (Wako 076-02841). The enzyme inhibition was measured spectrophotometrically at pH 6.9 and at 37° C. using 0.7 mM p-nitrophenyl-α-D-glucopyranoside (PNP-G) as a substrate and 500 m units/mL enzyme, in 50 mM sodium phosphate buffer containing 100 mM NaCl. […] The increment in absorption at 400 nm, due to the hydrolysis of PNP-G by α-glucosidase, was monitored continuously on microplate spectrophotometer (Spectra Max Molecular Devices, USA).) [T. Matsui, C. Yoshimoto, K. Osajima, T. Oki, and Y. Osajima. Biosci. Biotech. Biochem., 1996, 60, 2019].

[1] = in vitro, pH 6.9, 37° C., 0.7 mM PNP-G substrate, 500 m units/mL enzyme, read-out: IC50 ± SEM
[2] = running text b24, unit inferred, read-out: IC50 (inhibitory effect on the enzyme)

C[C@@]12CCC[C@@](C)(C(=O)O)[C@H]1CC[C@@]13C[C@@H](CC[C@H]12)[C@@](O)(CO)C3 (single isomer, unassigned; ent-16) [Compound 2, ent-16,17-dihydroxy-(−)-kauran-19-oic acid] was tested, and the IC50 [1] was 62.2 µM and the IC50 [2] was 62.2 ± 0.008 µM.
In the case of C[C@@]12CCC[C@@](C)(C(=O)O[C@@H]3O[C@H](CO)[C@@H](O)[C@H](O)[C@H]3O)[C@H]1CC[C@@]13C[C@@H](CC[C@H]12)[C@@](O)(CO)C3 (single isomer, unassigned; ent-1) [Compound 1, 16, β-17-hydroxy-ent-1-α-auzan 19-O-D-glucopyranosyl ester], the IC50 [1] is reported as 407 ± 20 µM and the IC50 [2] is reported as 407 ± 20 µM.

From patent US20070287674A1, “New treatment of diabetes mellitus” (HEJ RESEARCH INSTITUTE OF CHEMISTRY, priority 2006, published 2007)
